Assay results as given in patent US4918066A, “Substituted 4-benzylpiperazinyl compounds” (Ciba-Geigy Corporation, priority 1989, dated 1990).
Values after ≈ are worked out from the molar mass of the structure shown.

How the values were obtained:
[1] = system: M. kansasii K 367; assay: MIC against atypical Mycobacteria, photochromogenic (Table II); assay type: cell-based; settings: Mycobacterium kansasii, K367, read-out: MIC (minimum inhibitory concentration)
Description: (§1) MIC = minimum inhibitory concentration (1 mcg = 1.10^-5 g)

[2] = Retention time in the organism / long-term activity; assay type: in vivo; settings: for activity in respect of pharmacokinetics: vs known 3-piperazinyl-rifamycins; for retention time in the organism: vs rifampicin or compounds 1 to 4 of U.S. Pat. No. 4,005,077
[3] = system: Mycobacterium tuberculosis TB H3 Rv; assay: Activity against Mycobacterium tuberculosis TB H3 Rv, ED50 p.o. (Table 1); assay type: in vivo; settings: TBH3RV, po
[4] = system: Mycobacterium tuberculosis TB H3 Rv; assay: Activity against Mycobacterium tuberculosis TB H3 Rv in vitro, MIC (Table 1); assay type: cell-based; settings: TBH3RV, read-out: MIC (minimum inhibitory concentration)
Description: (a) minimum inhibitory concentration (1 mcg = 1.10^-5 g)

[5] = Pharmacokinetics in mice (Table 1); assay type: in vivo; settings: mouse; for half-life: in vivo, read-out: t/2 (halflife of the elimination) (converted); for Cmax: plasma, read-out: Cmax (maximum concentration in the plasma)
[6] = Pharmacokinetics in rats (Table 1); assay type: in vivo; settings: rat; for half-life: in vivo, read-out: t/2 (halflife of the elimination) (converted); for Cmax: plasma, read-out: Cmax (maximum concentration in the plasma)
Description: (c) Cmax = maximum concentration in the plasma (1 mcg = 1.10^-5

[7] = system: M. aquae K 1165; assay: MIC against atypical Mycobacteria, scotochromogenic (Table II); assay type: cell-based; settings: read-out: MIC (minimum inhibitory concentration)
Description: as §1

[8] = system: M. xenopei K 716; assay: as above; assay type: cell-based; settings: Mycobacterium xenopi, K716, read-out: MIC (minimum inhibitory concentration)
Description: as §1

[9] = system: M. scrofulaceum K 1166; assay: as above; assay type: cell-based; settings: Mycobacterium scrofulaceum, K1166, read-out: MIC (minimum inhibitory concentration)
Description: as §1

[10] = system: M. intracellular K 551; assay: MIC against atypical Mycobacteria, non-photochromogenic (Table II); assay type: cell-based; settings: read-out: MIC (minimum inhibitory concentration)
Description: as §1

[11] = system: M. intracellular K 546; assay: as above; assay type: cell-based; settings: read-out: MIC (minimum inhibitory concentration)
Description: as §1

[12] = system: M. intracellular K 653; assay: as above; assay type: cell-based; settings: read-out: MIC (minimum inhibitory concentration)
Description: as §1

[13] = system: M. intracellular K 550; assay: as above; assay type: cell-based; settings: read-out: MIC (minimum inhibitory concentration)
Description: as §1

[14] = system: M. intracellular K 181; assay: as above; assay type: cell-based; settings: read-out: MIC (minimum inhibitory concentration)
Description: as §1

[15] = system: M. avium K 536; assay: as above; assay type: cell-based; settings: Mycobacterium avium, K536, read-out: MIC (minimum inhibitory concentration)
Description: as §1

[16] = system: atypical Mycobacteria; assay: Antimicrobial activity in vitro against atypical Mycobacteria; assay type: cell-based, Mycobacterium; settings: against a number of atypical Mycobacteria; vs rifampicin
Description: This excellent activity is especially pronounced in group c, i.e. non-photochromogenic micro-organisms, which are among the most dangerous pathogens of AIDS infections.

SMILES: COC1C=COC2(C)Oc3c(C)c(O)c4c(O)c(c(N5CCN(Cc6c(C)cc(C)cc6C)CC5)c(O)c4c3C2=O)NC(=O)C(C)=CC=CC(C)C(O)C(C)C(O)C(C)C(OC(C)=O)C1C (stereo not drawn) [A, 3-[4-(2,4,6-trimethylbenzyl)-piperazin-1-yl]-rifamycin SV]
- MIC [1]: 0.015 µg/mL (≈ 0.0164 µM)
- activity in respect of pharmacokinetics [2]: superior activity in respect of pharmacokinetics
- retention time in the organism [2]: appreciably longer than that of rifampicin or of compounds 1 to 4
- ED50 [3]: 4 mg/kg
- MIC [4]: 0.003 µg/mL (≈ 0.00328 µM)
- half-life [5]: 47.4 h
- Cmax [5]: 2950 ng/mL
- half-life [6]: ~450 h
- Cmax [6]: 1510 ng/mL
- MIC [7]: 0.03 µg/mL (≈ 0.0328 µM)
- MIC [8]: 1 µg/mL (≈ 1.09 µM)
- MIC [9]: 0.03 µg/mL (≈ 0.0328 µM)
- MIC [10]: 0.25 µg/mL (≈ 0.273 µM)
- MIC [11]: 0.125 µg/mL (≈ 0.137 µM)
- MIC [12]: 0.125 µg/mL (≈ 0.137 µM)
- MIC [13]: 0.25 µg/mL (≈ 0.273 µM)
- MIC [14]: 0.03 µg/mL (≈ 0.0328 µM)
- MIC [15]: 0.5 µg/mL (≈ 0.547 µM)
- antimicrobial activity in vitro compared with rifampicin [16]: several times greater than the antimicrobial activity exhibited by rifampicin

SMILES: COC1C=COC2(C)Oc3c(C)c(O)c4c(O)c(c(N5CCN(Cc6cccc7ccccc67)CC5)c(O)c4c3C2=O)NC(=O)C(C)=CC=CC(C)C(O)C(C)C(O)C(C)C(OC(C)=O)C1C (stereo not drawn) [B, 3-[4-(1-naphthylmethyl)-piperazin-1-yl]rifamycin SV]
- MIC [1]: 0.015 µg/mL (≈ 0.0163 µM)
- activity in respect of pharmacokinetics [2]: superior activity in respect of pharmacokinetics
- retention time in the organism [2]: appreciably longer than that of rifampicin or of compounds 1 to 4
- ED50 [3]: 3 mg/kg
- MIC [4]: 0.0003 µg/mL (≈ 0.000325 µM)
- half-life [5]: 48.5 h
- Cmax [5]: 1880 ng/mL
- half-life [6]: 111 h
- Cmax [6]: 1120 ng/mL
- MIC [7]: 0.03 µg/mL (≈ 0.0325 µM)
- MIC [8]: 0.5 µg/mL (≈ 0.542 µM)
- MIC [9]: 0.06 µg/mL (≈ 0.0651 µM)
- MIC [10]: 1 µg/mL (≈ 1.08 µM)
- MIC [11]: 1 µg/mL (≈ 1.08 µM)
- MIC [12]: 0.25 µg/mL (≈ 0.271 µM)
- MIC [13]: 1 µg/mL (≈ 1.08 µM)
- MIC [14]: 0.125 µg/mL (≈ 0.136 µM)
- MIC [15]: 1 µg/mL (≈ 1.08 µM)
- antimicrobial activity in vitro compared with rifampicin [16]: several times greater than the antimicrobial activity exhibited by rifampicin

SMILES: COC1C=COC2(C)Oc3c(C)c(O)c4c(O)c(c(N5CCN(Cc6ccccc6C)CC5)c(O)c4c3C2=O)NC(=O)C(C)=CC=CC(C)C(O)C(C)C(O)C(C)C(OC(C)=O)C1C (stereo not drawn) [Compound 1, 3-[4-(o-methylbenzyl)-piperazin-1-yl]-rifamycin SV]
- ED50 [3]: 1.4 mg/kg
- MIC [4]: 0.001 µg/mL (≈ 0.00113 µM)
- half-life [5]: 22.9 h
- Cmax [5]: 2690 ng/mL
- half-life [6]: 86 h
- Cmax [6]: 1320 ng/mL

SMILES: COC1C=COC2(C)Oc3c(C)c(O)c4c(O)c(c(N5CCN(Cc6cccc(C)c6)CC5)c(O)c4c3C2=O)NC(=O)C(C)=CC=CC(C)C(O)C(C)C(O)C(C)C(OC(C)=O)C1C (stereo not drawn) [Compound 2]
- ED50 [3]: 1.4 mg/kg
- MIC [4]: 0.0003 µg/mL (≈ 0.000339 µM)
- half-life [5]: 11.9 h
- Cmax [5]: 3390 ng/mL

SMILES: COC1C=COC2(C)Oc3c(C)c(O)c4c(O)c(c(N5CCN(Cc6ccc(C)cc6)CC5)c(O)c4c3C2=O)NC(=O)C(C)=CC=CC(C)C(O)C(C)C(O)C(C)C(OC(C)=O)C1C (stereo not drawn) [Compound 3, 3-[4-(p-methylbenzyl)-piperazin-1-yl]-rifamycin SV]
- ED50 [3]: 1.2 mg/kg
- MIC [4]: 0.0001 µg/mL (≈ 0.000113 µM)
- half-life [5]: 11.5 h
- Cmax [5]: 2280 ng/mL

SMILES: COC1C=COC2(C)Oc3c(C)c(O)c4c(O)c(c(N5CCN(Cc6ccc(C(C)C)cc6)CC5)c(O)c4c3C2=O)NC(=O)C(C)=CC=CC(C)C(O)C(C)C(O)C(C)C(OC(C)=O)C1C (stereo not drawn) [Compound 4, 3-[4-(p-isopropylbenzyl)-piperazin-1-yl]-rifamycin SV]
- ED50 [3]: 1.5 mg/kg
- MIC [4]: 0.003 µg/mL (≈ 0.00328 µM)
- half-life [5]: 20.4 h
- Cmax [5]: 1810 ng/mL

SMILES: COC1C=COC2(C)Oc3c(C)c(O)c4c(O)c(c(N5CCN(CC(C)C)CC5)c(O)c4c3C2=O)NC(=O)C(C)=CC=CC(C)C(O)C(C)C(O)C(C)C(OC(C)=O)C1C (stereo not drawn) [Compound 5, 3-(4-isobutylpiperazin-1-yl)-rifamycin SV]
- ED50 [3]: 1 mg/kg
- MIC [4]: 0.0001 µg/mL (≈ 0.000119 µM)
- half-life [5]: 12 h
- Cmax [5]: 1200 ng/mL

SMILES: C=C(C)CN1CCN(c2c3c(O)c4c(O)c(C)c5c(c4c2O)C(=O)C(C)(OC=CC(OC)C(C)C(OC(C)=O)C(C)C(O)C(C)C(O)C(C)C=CC=C(C)C(=O)N3)O5)CC1 (stereo not drawn) [Compound 6]
- ED50 [3]: 1 mg/kg
- MIC [4]: 0.0003 µg/mL (≈ 0.000359 µM)
- half-life [5]: 21 h
- Cmax [5]: 1400 ng/mL

SMILES: CO[C@H]1/C=C/O[C@@]2(C)Oc3c(C)c(O)c4c(O)c(c(/C=N/N5CCN(C)CC5)c(O)c4c3C2=O)NC(=O)/C(C)=C\C=C\[C@H](C)[C@H](O)[C@@H](C)[C@@H](O)[C@@H](C)[C@H](OC(C)=O)[C@@H]1C [Rifampicin]
- MIC [1]: 0.25 µg/mL (≈ 0.304 µM)
- ED50 [3]: 5.9 mg/kg
- MIC [4]: 0.003 µg/mL (≈ 0.00365 µM)
- Cmax [5]: 2480 ng/mL
- Cmax [6]: 1390 ng/mL
- MIC [7]: 0.25 µg/mL (≈ 0.304 µM)
- MIC [8]: 1 µg/mL (≈ 1.22 µM)
- MIC [9]: 1 µg/mL (≈ 1.22 µM)
- MIC [10]: 1 µg/mL (≈ 1.22 µM)
- MIC [11]: 16 µg/mL (≈ 19.4 µM)
- MIC [12]: 2 µg/mL (≈ 2.43 µM)
- MIC [13]: 8 µg/mL (≈ 9.72 µM)
- MIC [14]: 0.5 µg/mL (≈ 0.608 µM)
- MIC [15]: 64 µg/mL (≈ 77.8 µM)
